Values after ≈ are worked out from the molar mass of the structure shown. Like-named read-outs stand apart in the source and are kept apart here.
Key:
[1] = tested on: Propionebecterium acnes NCTC 737; assay: MIC vs. panel of anaerobes; type: cell-based
[2] = tested on: Peptostreptococcus anaerobicus; assay: MIC vs. panel of anaerobes; type: cell-based
[3] = tested on: Clostridium perfringens NCTC 523; assay: microbe, parasite or virus in culture; type: cell-based; conditions: NCTC523
[4] = tested on: Bacteroides melanogenicus NCTC 9336; assay: MIC vs. panel of anaerobes; type: cell-based; conditions: NCTC9336
[5] = tested on: B. fragilis NCTC 10581; assay: MIC/MBC broth microdilution, strain A; type: cell-based; conditions: Bacteroides fragilis, NCTC10581, 48 h; for MBC: 99.9% reduction in viable count after 48 h; for MIC: 37° C., anaerobic
[6] = tested on: B. fragilis NCTC 9344; assay: MIC/MBC broth microdilution, strain C; type: cell-based, Bacteroides fragilis; conditions: Bacteroides fragilis, NCTC9344, 48 h; for MIC: 37° C., anaerobic; for MBC: 99.9% reduction in viable count after 48 h, read-out: MBC
[7] = tested on: Fusobacterium necrophorum ATCC 11295; assay: MIC vs. panel of anaerobes; type: cell-based; conditions: ATCC11295; Fusobacterium necrophorum ATCC 11295; read-out: MIC
[8] = tested on: B. fragilis MZ-R ATCC 11295; assay: MIC/MBC broth microdilution, strain D; type: cell-based; conditions: Bacteroides fragilis, ATCC11295, 48 h; for MBC: 99.9% reduction in viable count after 48 h
[9] = tested on: Campylobacter fetus ss.jejuni ATCC 29428; assay: MIC vs. panel of anaerobes; type: cell-based; conditions: ATCC29428
[10] = tested on: Clostridium difficile NCIB 10666; assay: MIC vs. panel of anaerobes; type: cell-based; conditions: Clostridioides difficile, NCIB10666
[11] = tested on: B. fragilis WS-1; assay: MIC/MBC broth microdilution, strain E; type: cell-based, Bacteroides fragilis; conditions: Bacteroides fragilis, WS1, 48 h; for MBC: 99.9% reduction in viable count after 48 h; for MIC: 37° C., anaerobic
[12] = tested on: Clostridium perfringens NCTC 8237; assay: microbe, parasite or virus in culture; type: cell-based; conditions: NCTC8237
[13] = tested on: Clostridium difficile Cytotoxic 1; assay: MIC vs. panel of anaerobes; type: cell-based; conditions: Clostridioides difficile
[14] = tested on: B. fragilis NCTC 9343; assay: MIC/MBC broth microdilution, strain B; type: cell-based; conditions: Bacteroides fragilis, NCTC9343, 48 h; for MBC: 99.9% reduction in viable count after 48 h; for MIC: 37° C., anaerobic
[15] = tested on: B. Fragilis ATCC 23745; conditions: Bacteroides fragilis, ATCC23745, in Mus musculus, po, 48 h, read-out: Dose giving 1 log reduction, p.o., after infection and twice daily for 2 days; 1 log (90%) reduction of CFU/ml liver homogenate vs untreated; compound of Example
[16] = tested on: Propionebacterium acnes NCTC 7337; assay: MIC vs. panel of anaerobes; type: cell-based
[17] = Peptostreptococcus anaerobicus, read-out: MIC
[18] = Bacteroides melanogenicus NCTC 9336, read-out: MIC
[19] = Clostridium difficile NCIB 10666, read-out: MIC

| SMILES | MIC [1] [µg/mL] | MIC [2, 17] [µg/mL] | MIC [3] [µg/mL] | MIC [4, 18] [µg/mL] | MBC [5] [µg/mL] | MIC ([5]; 48 h) [µg/mL] | MIC ([6]; read-out: MIC) [µg/mL] | MBC [6] [µg/mL] | MIC [7] [µg/mL] | MIC [8] [µg/mL] | MBC ([8]; strain D (MZ-R)) [µg/mL] | MIC [9] [µg/mL] | MIC [10, 19] [µg/mL] | MBC [11] [µg/mL] | MIC [12] [µg/mL] | MIC [13] [µg/mL] | MBC [14] [µg/mL] | ED (1 log reduction) [15] [mg/kg] | MIC [16] [µg/mL] | MIC ([11]; read-out: MIC) [µg/mL] | further results |
| --- | --- | --- | --- | --- | --- | --- | --- | --- | --- | --- | --- | --- | --- | --- | --- | --- | --- | --- | --- | --- | --- |
| [O-][N+]1=C(c2ccccc2)C2=NCCN2c2cc(F)ccc21 [Example 1, 1,2-Dihydro-8-fluoro-4-phenylimidazo[1,2-a]quinoxaline 5-oxide] | 50 (≈ 178 µM) | 25 (≈ 88.9 µM) | 3.1 (≈ 11 µM) | 25 (≈ 88.9 µM) | 3.1 (≈ 11 µM) | 3.1 (≈ 11 µM) | 1.5 (≈ 5.33 µM) | 1.5 (≈ 5.33 µM) | < 0.8 | 0.8 (≈ 2.84 µM) | 1.5 (≈ 5.33 µM) | 2.5 (≈ 8.89 µM) | < 0.8 | 3.1 (≈ 11 µM) | 3.1 (≈ 11 µM) | < 0.8 | 3.1 (≈ 11 µM) | 7.57 | 50 (≈ 178 µM) |  | MIC ([11]; 48 h): 3.1 µg/mL (≈ 11 µM); MIC ([14]; 48 h): 3.1 µg/mL (≈ 11 µM) |
| [O-][N+]1=C(c2ccccc2)C2=NCCN2c2cc(F)c(F)cc21 [Example 2, 1,2-Dihydro-7,8-difluoro-4-phenylimidazo[1,2-a]quinoxaline 5-oxide] | 25 (≈ 83.5 µM) | 12.5 (≈ 41.8 µM) | 6.2 (≈ 20.7 µM) | 6.2 (≈ 20.7 µM) | 0.6 (≈ 2 µM) |  | 0.6 (≈ 2 µM) | 0.6 (≈ 2 µM) | 3.1 (≈ 10.4 µM) | 0.08 (≈ 0.267 µM) | 0.15 (≈ 0.501 µM) | 12.5 (≈ 41.8 µM) |  | 0.6 (≈ 2 µM) | 6.2 (≈ 20.7 µM) | 6.2 (≈ 20.7 µM) | 0.15 (≈ 0.501 µM) | < 40 | 25 (≈ 83.5 µM) | 0.6 (≈ 2 µM) | MIC ([5]; read-out: MIC): 0.6 µg/mL (≈ 2 µM); MIC [10]: < 0.8 µg/mL; MIC ([14]; read-out: MIC): 0.15 µg/mL (≈ 0.501 µM) |
| [O-][N+]1=C(c2ccccc2)C2=NCCN2c2nc(Cl)ccc21 [Example 3, 8-Chloro-1,2-dihydro-4-phenylimidazo[1,2-a]pyrido[3,2-e]-pyrazine 5-oxide] | > 100 | 50 (≈ 167 µM) | 6.2 (≈ 20.8 µM) | 100 (≈ 335 µM) | 12.5 (≈ 41.8 µM) |  | 6.2 (≈ 20.8 µM) | 6.2 (≈ 20.8 µM) | 6.2 (≈ 20.8 µM) | 3.1 (≈ 10.4 µM) | 3.1 (≈ 10.4 µM) | 50 (≈ 167 µM) | < 0.8 | 6.2 (≈ 20.8 µM) | 25 (≈ 83.7 µM) | < 0.8 | 12.5 (≈ 41.8 µM) | < 40 | 100 (≈ 335 µM) | 6.2 (≈ 20.8 µM) | MIC ([5]; read-out: MIC): 12.5 µg/mL (≈ 41.8 µM); MIC ([14]; read-out: MIC): 12.5 µg/mL (≈ 41.8 µM) |
| CN1CCN(c2ccc3c(c2)N2CCN=C2C(c2ccccc2)=[N+]3[O-])CC1 [Example 4, 1,2-Dihydro-8-(4-methylpiperazinyl)-4-phenylimidazo[1,2-a]-quinoxaline 5-oxide] | 25 (≈ 69.2 µM) |  | 6.2 (≈ 17.2 µM) |  | 3.1 (≈ 8.58 µM) | 3.1 (≈ 8.58 µM) |  | 3.1 (≈ 8.58 µM) | 6.2 (≈ 17.2 µM) |  | 1.5 (≈ 4.15 µM) | 25 (≈ 69.2 µM) | 1.5 (≈ 4.15 µM) | 6.2 (≈ 17.2 µM) | 12.5 (≈ 34.6 µM) | 6.2 (≈ 17.2 µM) | 3.1 (≈ 8.58 µM) | 7.73 | 25 (≈ 69.2 µM) | 6.2 (≈ 17.2 µM) | MIC ([2]; Peptostreptococcus): 12.5 µg/mL (≈ 34.6 µM); MIC ([4]; Bacteroides): 12.5 µg/mL (≈ 34.6 µM); MIC ([6]; 48 h): 3.1 µg/mL (≈ 8.58 µM); MIC ([8]; strain D (MZ-R), 48 h, 37° C., anaerobic, read-out: MIC): 1.5 µg/mL (≈ 4.15 µM); MIC ([14]; 48 h): 3.1 µg/mL (≈ 8.58 µM) |
| [O-][N+]1=C(c2ccccc2)C2=NCCN2c2cc(N3CCN(c4ccccc4)CC3)c(F)cc21 [Example 5, 1,2-Dihydro-7-fluoro-4-phenyl-8-(4-phenylpiperazinyl)imidazo[1,2-a]quinoxaline 5-oxide] | > 100 | > 100 | 3.1 (≈ 7.02 µM) | > 100 |  | 3.1 (≈ 7.02 µM) | 6.2 (≈ 14 µM) |  | 6.2 (≈ 14 µM) | 0.8 (≈ 1.81 µM) |  | > 100 | < 0.8 |  | 6.2 (≈ 14 µM) | < 0.8 |  | 11.7 | > 100 | 1.5 (≈ 3.4 µM) | MIC ([14]; read-out: MIC): 1.5 µg/mL (≈ 3.4 µM) |

From patent US4696928A, “Substituted dihydroimidazo[1,2-a]quinoxalines” (G. D. Searle & Co., priority 1985, dated 1987)
